Measured values: patent US20250280826A1, “PLANT GROWTH PROMOTER” (KAO CORPORATION, priority 2022, published 2025)

Test system: chickpea
Assay: Example 7: initial growth index in chickpea (above-ground part dry weight)
Type: in vivo
Conditions: ascorbic acid 1 500 mass ppm, tap water vs deionized water
Method: Medium-term fertilizer effect type culture soil (Takii hydrous cell medium-term fertilizer effect type, Takii & Co., Ltd.) and vermiculite grains (Akagi-Engei Co., Ltd.) were mixed at a volume ratio of 1:1, and the soil was placed in a polypot (diameter: 10.5 cm, height: 9 cm). The chickpea used was seeds of Kabuli species (purchased from Nikko Seed Co. Ltd.). After tap water was supplied in an amount of 250 mL per pot, 2 seeds per pot were each sown at a depth of from about 1 to 2 cm from the soil surface. The number of repeats in each test plot was 6 (n=6). […]
The cultivation conditions and the foliar spray treatment method were the same as those in Example 6 (example of azuki bean). The evaluated test plots 1 to 4 are as follows.
On day 28 after sowing, the plant body was dried at 90° C. for 24 hours, and the above-ground part dry weight of the plant body was then measured. • 1 plot: control (no application) • 2 plot: foliar spray of 1 500 mass ppm ascorbic acid (dissolved in tap water) • 3 plot: foliar spray of 1 500 mass ppm ascorbic acid (dissolved in deionized water) • 4 plot: foliar spray of 1 500 mass ppm ascorbic acid+1 mass ppm BHT+50 mass ppm isobutyl alcohol+350 mass ppm sorbitan monolaurate (dissolved in tap water) […]

SMILES: O=C1O[C@H]([C@@H](O)CO)C(O)=C1O [ascorbic acid, (R)-3,4-dihydroxy-5-((S)-1,2-dihydroxyethyl)furan-2(5H)-one]
- effects on the initial growth index: varied in accordance with the water quality
